Measurements published in patent EP2818472A1, “Imidazo[4,5-c]pyridine and pyrrolo[3,2-c]pyridine compounds as G-protein-coupled receptor kinase 5 (GRK5) modulators” (Max-Planck-Gesellschaft zur Förderung der Wissenschaften …, priority 2013, dated 2014).

Key:
[1] = tested on: beta-TC6 cells; experiment: Insulin release by beta-TC6 cells in high glucose medium, rat/mouse insulin ELISA; type: cell-based; conditions: 2 h; for Insulin release by beta-TC6 cells at 5µM [%]: 5 µM compound, high glucose (4.5 g/L) DMEM, % increase in regard to the DMSO control (set at 0%); for effect on the insulin release by beta-TC6 cells compared with the positive control Sunitinib: 5 µM, high glucose (4.5 g/L)
Procedure: After having identified the most promising compounds acting as GRK5 inhibitors and determined the IC50 values, the effect of the compounds of the example 2 on the release of insulin by beta-TC6 was determined. […] Release of insulin was detected using a rat/mouse insulin ELISA.
To order to measure the insulin released by beta-TC6 insulinoma (mouse) cells upon treatment with the compounds of the present invention, beta-TC6 insulinoma (mouse)cells were washed and incubated for 2 h in high (4.5 g/L) or low (1.125 g/L) glucose media at 37 °C. After incubation, the supernatant of the beta-TC6 insulinoma cells was diluted 1:20. The insulin release was measured with rat/mouse insulin ELISA (Merck Millipore Darmstadt, Cat. # EZRMI-13K) by following the manufacture protocol. The enzyme activity of the horseradish peroxidase of the immobilized biotinylated antibodies was monitored spectrophotometrically by the increased absorbency at 490 nm, and corrected by the absorbency at 610 nm. […] Table 3: Insulin release by beta-TC6 cells treated with the compounds of the present invention (the % values are in regard to the DMSO control, thus 30% means an increase of insulin release of 30% in regard to the physiological conditions where the insulin release is set at 0%)

[2] = tested on: C2C12 cells; experiment: 2-NBDG glucose uptake in C2C12 cells, flow cytometry; type: cell-based; conditions: 5 µM compound, 1 h, glucose free media with 100 µM 2-NBDG
Procedure: To investigate the impact of the GRK5 inhibitors on glucose uptake, the fluorescent D-glucose analog 2-[N-(7-nitrobenz-2-oxa-1,3-diazol-4-yl)-amino]-2-deoxy-D-glucose (2-NBDG) was used. 2-NBDG is a fluorescently-labeled deoxyglucose analog that is commonly used to directly monitor glucose uptake by living cells. For 2-NBDG detection, cells were cultured for 1 h together with 5 µM of an inventive compound in glucose free media supplied with 100 µM 2-NBDG at 37 °C before collecting. Furthermore, as internal controls, samples of glucose free media, respectively glucose free media with test compound, were tested. Subsequently, cells were washed, trypsinized and harvested in ice-cold PBS before centrifuged at 1.6 x10^3 rpm at 4°C. Cells were analyzed by flow cytometry (FACS Calibur, BD Bioscience, respectively a BD Accuri® C6 Flow Cytometer). For evaluation, cells were gated using the side- and forward scatter SSC/FSC and quantified by excited at 488 nm and collected at […] (FL1). Table 4: 2-NBDG glucose uptake (%) by cells treated with the compounds of the present application

[3] = tested on: beta-TC6 cells; experiment: Insulin HTRF assay (relative activity Ar) in beta-TC6 cells; type: cell-based, mouse; conditions: Mus musculus, Beta-TC6, 4 h, insulin HTRF, supernatant of beta-TC6 cells, incubation with test compound at 37°C for 2, 3, 4h; read-out: Ar (relative activity)
Outline: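 beta-TC6 cells (15k/well, seeded 24 or 48 h) washed, then exposed to compound in induction buffer (0.5% DMSO final) for 2, 3 or 4 h at 37°C.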

[4] = tested on: beta-TC6 cells; experiment: Glucose dependent insulin release by beta-TC6 cells in low glucose medium, rat/mouse insulin ELISA; type: cell-based; design: unit not given here; conditions: media with 1.125 mM (20 mg/dL) glucose, 2 h, compared with DMSO control

## CN1CCN(c2ccc(Nc3cc4[nH]c(-c5cccc(N)c5)cc4cn3)cc2)CC1 [Compound 3, 2-(3-aminophenyl)-N-[4-(4-methylpiperazin-1-yl)phenyl]-1H-pyrrolo[3,2-c]pyridin-6-amine]
[1]
  Insulin release by beta-TC6 cells at 5µM [%]: 15.43%
[2]
  2-NBDG Glucose Uptake [%]: 38.51%
[3]
  Emax: > 100%

## NC(=O)c1ccc(Nc2cc3[nH]c(-c4cccc(F)c4)cc3cn2)cc1 [Compound 6, 4-[[2-(3-fluorophenyl)-1H-pyrrolo[3,2-c]pyridin-6-yl]amino]benzamide]
[1]
  Insulin release by beta-TC6 cells at 5µM [%]: 81.25%
  effect on the insulin release by beta-TC6 cells compared with the positive control Sunitinib: level similar to Sunitinib
[2]
  2-NBDG Glucose Uptake [%]: 45.35%
[3]
  Emax: 50 to 100%

## COc1ccc(Nc2cc3c(cn2)cc(-c2cnn(C)c2)n3C)cc1 [Compound 137, N-(4-methoxyphenyl)-1-methyl-2-(1-methylpyrazol-4-yl)pyrrolo[3,2-c]pyridin-6-amine]
[2]
  2-NBDG Glucose Uptake [%]: 69.73%
[3]
  Emax: 50 to 100%

## Cn1c(-c2cccnc2)cc2c(Nc3cccc(C(F)(F)F)c3)nccc21 [Compound 243, 1-methyl-2-(3-pyridyl)-N-[3-(trifluoromethyl)phenyl]pyrrolo[3,2-c]pyridin-4-amine]
[1]
  Insulin release by beta-TC6 cells at 5µM [%]: 142.26%
  effect on the insulin release by beta-TC6 cells compared with the positive control Sunitinib: better effect on the insulin release by beta-TC6 cells than the positive control Sunitinib
[2]
  2-NBDG Glucose Uptake [%]: 48.87%
[3]
  Emax: 0 to 30%

## COc1ccccc1-c1cc2c(Nc3ccc(SC)cc3)nccc2n1C [Compound 305, 2-(2-methoxyphenyl)-1-methyl-N-(4-methylsulfanylphenyl)pyrrolo[3,2-c]pyridin-4-amine]
[1]
  Insulin release by beta-TC6 cells at 5µM [%]: 20.24%
[2]
  2-NBDG Glucose Uptake [%]: 50.81%
[3]
  Emax: 30 to 50%

## COc1ccc(-c2nc3c(Nc4ccc(OC)c(OC)c4)nccc3[nH]2)cc1 [Compound 392, N-(3,4-dimethoxyphenyl)-2-(4-methoxyphenyl)-1H-imidazo[4,5-c]pyridin-4-amine]
[1]
  Insulin release by beta-TC6 cells at 5µM [%]: 30.52%
[3]
  Emax: 50 to 100%

## COc1ccc(Nc2nccc3[nH]c(-c4cccc(OC)c4F)nc23)cc1 [Compound 475, 2-(2-fluoro-3-methoxy-phenyl)-N-(4-methoxyphenyl)-1H-imidazo[4,5-c]pyridin-4-amine]
[1]
  Insulin release by beta-TC6 cells at 5µM [%]: 48.72%
[3]
  Emax: 50 to 100%

## Cn1c(NCc2ccccc2)nc2cnc(-c3ccccc3)cc21 [Compound 836, N-benzyl-1-methyl-6-phenyl-imidazo[4,5-c]pyridin-2-amine]
[3]
  Emax: 30 to 50%

## COc1ccc(-c2cc3c(cn2)nc(NCc2ccccc2)n3C)cc1 [Compound 839, N-benzyl-6-(4-methoxyphenyl)-1-methyl-imidazo[4,5-c]pyridin-2-amine]
[3]
  Emax: 30 to 50%

## Cn1c(NCc2ccccc2)nc2cnc(-c3cccs3)cc21 [Compound 841, N-benzyl-1-methyl-6-(2-thienyl)imidazo[4,5-c]pyridin-2-amine]
[3]
  Emax: 30 to 50%

## COc1ccc(-c2cc3c(cn2)nc(Nc2ccccc2)n3C)cc1 [Compound 847, 6-(4-methoxyphenyl)-1-methyl-N-phenyl-imidazo[4,5-c]pyridin-2-amine]
[3]
  Emax: 30 to 50%

## Cn1c(NCC2CCCO2)nc2cnc(-c3ccc4ccccc4c3)cc21 (centres unmarked) [Compound 850, 1-methyl-6-(2-naphthyl)-N-(tetrahydrofuran-2-ylmethyl)imidazo[4,5-c]pyridin-2-amine]
[3]
  Emax: 30 to 50%

## Cn1c(NCC2CCCO2)nc2cnc(-c3cccc(Oc4ccccc4)c3)cc21 (centres unmarked) [Compound 851, 1-methyl-6-(3-phenoxyphenyl)-N-(tetrahydrofuran-2-ylmethyl)imidazo[4,5-c]pyridin-2-amine]
[3]
  Emax: 30 to 50%

## Cn1c(NCC2CCCO2)nc2cnc(-c3cccs3)cc21 (centres unmarked) [Compound 852, 1-methyl-N-(tetrahydrofuran-2-ylmethyl)-6-(2-thienyl)imidazo[4,5-c]pyridin-2-amine]
[3]
  Emax: 30 to 50%

## COCCNc1nc2cnc(-c3cccc(OC(F)(F)F)c3)cc2n1C [Compound 855, N-(2-methoxyethyl)-1-methyl-6-[3-(trifluoromethoxy)phenyl]imidazo[4,5-c]pyridin-2-amine]
[3]
  Emax: 30 to 50%

## COCCNc1nc2cnc(-c3ccc(OC)cc3C)cc2n1C [Compound 859, N-(2-methoxyethyl)-6-(4-methoxy-2-methyl-phenyl)-1-methyl-imidazo[4,5-c]pyridin-2-amine]
[3]
  Emax: 30 to 50%

## COc1ccc(-c2cc3c(cn2)nc(NCc2cccnc2)n3C)cc1OC [Compound 862, 6-(3,4-dimethoxyphenyl)-1-methyl-N-(3-pyridylmethyl)imidazo[4,5-c]pyridin-2-amine]
[3]
  Emax: 0 to 30%

## COc1ccc(-c2cc3c(cn2)nc(NCc2ccccc2F)n3C)cc1OC [Compound 865, 6-(3,4-dimethoxyphenyl)-N-[(2-fluorophenyl)methyl]-1-methyl-imidazo[4,5-c]pyridin-2-amine]
[3]
  Emax: 30 to 50%

## Cn1c(NCc2ccccc2F)nc2cnc(-c3cccc(Cl)c3)cc21 [Compound 866, 6-(3-chlorophenyl)-N-[(2-fluorophenyl)methyl]-1-methyl-imidazo[4,5-c]pyridin-2-amine]
[3]
  Emax: 30 to 50%

## Cn1c(NCc2ccccc2F)nc2cnc(-c3cccc(CO)c3)cc21 [Compound 868, [3-[2-[(2-fluorophenyl)methylamino]-1-methyl-imidazo[4,5-c]pyridin-6-yl]phenyl]methanol]
[3]
  Emax: 0 to 30%

## CNc1nc2cnc(-c3ccsc3)cc2n1Cc1ccc(OC)c(OC)c1 [Compound 877, 1-[(3,4-dimethoxyphenyl)methyl]-N-methyl-6-(3-thienyl)imidazo[4,5-c]pyridin-2-amine]
[3]
  Emax: 30 to 50%

## CNc1nc2cnc(-c3ccc(O)c(OC)c3)cc2n1Cc1ccc(OC)c(OC)c1 [Compound 879, 4-[1-[(3,4-dimethoxyphenyl)methyl]-2-(methylamino)imidazo[4,5-c]pyridin-6-yl]-2-methoxy-phenol]
[3]
  Emax: 30 to 50%

## CNc1nc2cnc(-c3cccs3)cc2n1Cc1ccc(OC)c(OC)c1 [Compound 880, 1-[(3,4-dimethoxyphenyl)methyl]-N-methyl-6-(2-thienyl)imidazo[4,5-c]pyridin-2-amine]
[3]
  Emax: 30 to 50%

## COc1cncc(-c2cc3[nH]c(NCC4CCCO4)nc3cn2)c1 (centres unmarked) [Compound 881, 6-(5-methoxy-3-pyridyl)-N-(tetrahydrofuran-2-ylmethyl)-1H-imidazo[4,5-c]pyridin-2-amine]
[3]
  Emax: 0 to 30%

## CNc1nc2cnc(-c3cccc4ccccc34)cc2n1-c1cccc(F)c1 [Compound 884, 1-(3-fluorophenyl)-N-methyl-6-(1-naphthyl)imidazo[4,5-c]pyridin-2-amine]
[3]
  Emax: 30 to 50%

## CNc1nc2cnc(-c3ccc4c(c3)OCO4)cc2n1-c1cccc(F)c1 [Compound 885, 6-(1,3-benzodioxol-5-yl)-1-(3-fluorophenyl)-N-methyl-imidazo[4,5-c]pyridin-2-amine]
[3]
  Emax: 0 to 30%

## CNc1nc2cnc(-c3ccc(O)c(OC)c3)cc2n1-c1cccc(F)c1 [Compound 888, 4-[1-(3-fluorophenyl)-2-(methylamino)imidazo[4,5-c]pyridin-6-yl]-2-methoxy-phenol]
[3]
  Emax: 30 to 50%

## CCN(CC)CCNC(=O)c1c(C)[nH]c(/C=C2\C(=O)Nc3ccc(F)cc32)c1C [Sunitinib]
[4]
  insulin release in low glucose media: 0.77 ± 0.03
